Experimental data as given in patent publication US9611268B2, “Modulators of toll-like receptor 7” (Gilead Sciences, Inc., priority 2007, dated 2017).

Test system: human Peripheral Blood Mononuclear Cell (PMBC)
Experiment: PBMC Assay, cytokine stimulation (IFNα)
Type: cell-based
Conditions: concentration at which the compound stimulated maximum IFN α production, 24 hours, read-out: IFN ECmax values
Method: Assays were conducted to determine cytokine stimulation at 24 hours from human Peripheral Blood Mononuclear Cell (PMBC) using the compounds of the present invention. The assays were run in duplicate, with 8-point, half-log dilution curves. The compounds of the present invention were diluted from […] DMSO solution. Cell supernatants are assayed directly for IFNα and 1:10 dilution for TNFα. The assays were performed in a similar fashion as described in Bioorg. Med. Chem. Lett. 16, 4559, (2006). Specifically, cryo-preserved PBMCs were thawed and seeded 96 well plates with 750,000 cells/well in 190 μL/well cell media. The PBMCs were then incubated for 1 hour at 37° C. at 5% CO2. Then, the compounds of the present invention were added in 10 μL cell media at 8 point, half-log dilution titration. The plates were incubated at 37° C. and 5% CO2 for 24 hours and then spinned at 1200 rpm for 10 min, which was followed by collecting supernatant and storing the same at −80° C. Cytokine secretion was assayed with Luminex and Upstate multi-plex kits, using a Luminex analysis instrument. IFN ECmax value for a compound was the concentration at which the compound stimulated maximum IFN α production as determined using the assay method above.

SMILES | EC (max) [µM]
COCCOc1nc(N)c2nc(O)n(Cc3cccc(CN4CCCC4)c3)c2n1 [Example A, 6-Amino-2-(2-methoxy-ethoxy)-9-(3-pyrrolidin-1-ylmethyl-benzyl)-9H-purin-8-ol] | < 0.005
COCCOc1nc(N)c2nc(O)n(Cc3cc(CN4CCCC4)cc(C(F)(F)F)c3)c2n1 [Example AQ] | < 0.005
COCCOc1nc(N)c2nc(O)n(Cc3cc(CN4CCCCC4)cc(C(F)(F)F)c3)c2n1 [Example AS] | < 0.005
Nc1nc(OCCC2CC2)nc2c1nc(O)n2Cc1cccc(CN2CCCC2)c1 [Example AU] | < 0.005
Nc1nc(OCC2CCC2)nc2c1nc(O)n2Cc1cccc(CN2CCCC2)c1 [Example AV] | < 0.005
Nc1nc(OCC2CC2)nc2c1nc(O)n2Cc1cccc(CN2CCCC2)c1 [Example AW] | < 0.005
COCCOc1nc(N)c2nc(O)n(Cc3cccc(CNCC4CCCCC4)c3)c2n1 [Example AZ] | < 0.005
CCCCOc1nc(N)c2nc(O)n(Cc3cccc(CN4CCC4)c3)c2n1 [Example BE] | < 0.005
Nc1nc(OCCC(F)(F)F)nc2c1nc(O)n2Cc1cccc(CN2CCCC2)c1 [Example BH] | < 0.005
Nc1nc(OC2CCCC2)nc2c1nc(O)n2Cc1cccc(CN2CCCC2)c1 [Example BM] | < 0.005
COCCOc1nc(N)c2nc(O)n(Cc3cccc(CN4CCN(C)CC4)c3)c2n1 [Example C, 6-Amino-2-(2-methoxy-ethoxy)-9-[3-(4-methyl-piperazin-1-ylmethyl)-benzyl]-9H-purin-8-ol] | < 0.005
COCCOc1nc(N)c2nc(O)n(Cc3cccc(CNCC4CC4)c3)c2n1 [Example D, 6-Amino-9-{3-[(cyclopropylmethyl-amino)-methyl]-benzyl}-2-(2-methoxy-ethoxy)-9H-purin-8-ol] | < 0.005
COCCOc1nc(N)c2nc(O)n(Cc3cccc(CN4CC(C)CC(C)C4)c3)c2n1 (stereo not shown) [Example F, 6-Amino-9-[3-(3,5-dimethyl-piperidin-1-ylmethyl)-benzyl]-2-(2-methoxy-ethoxy)-9H-purin-8-ol] | < 0.005
COCCOc1nc(N)c2nc(O)n(Cc3cccc(CN4CCCCC4)c3)c2n1 [Example J, 6-Amino-2-(2-methoxy-ethoxy)-9-(3-piperidin-1-ylmethyl-benzyl)-9H-purin-8-ol] | < 0.005
COCCOc1nc(N)c2nc(O)n(Cc3cccc(CN4CCC4)c3)c2n1 [Example N, 9-(3-(azetidin-1-ylmethyl)benzyl)-6-amino-2-(2-methoxyethoxy)-9H-purin-8-ol] | < 0.005
COCCOc1nc(N)c2nc(OC(=O)OC(C)C)n(Cc3cccc(CN4CCCC4)c3)c2n1 [Example R, 9-(3-(pyrrolidin-1-ylmethyl)benzyl)-6-amino-2-(2-methoxyethoxy)-9H-purin-8-yl isopropyl carbonate] | < 0.005
